From patent US12156861B2, “Pharmaceutical composition for treating kidney cancer and application thereof” (SICHUAN JIUZHANG BIOLOGICAL SCIENCE AND TECHNOLOGY CO., LTD., priority 2018, dated 2024) come the findings set out here.

Where two headings read alike, the source gives them in different places.

The subject of data set [1] is human renal cancer cell lines A498. Nature of the data set: WST-1 growth inhibition of human renal cancer cell line A498 in vitro. Type of data set: cell-based. The note with it: for Observation of cell morphology / effect on cell growth: inverted microscope, compared with negative control; for inhibition at 15 µg/mL: final concentration 15 μg/ml; for inhibition at 60 µg/mL: final concentration 60 μg/ml; for OD value (average): WST-1, absorption at 440 nm. Here is the method:
(§1) Human kidney cancer cell line A498 and mouse kidney cancer cell line RuCa; the cells were passaged prior to use, and the cells that were in a good growth state and in log phase growth were selected for use.
(§2) Then, the cells were suspended in complete medium, and the cell concentration was adjusted to 6×10^4/ml. The cells were seeded in 96 well plates at 50 μl/well […], and three multiple wells were set up for each drug concentration.
(§3) On the next day after inoculation, once cells were adherent to the wall, the drugs were added according to the following groups and then incubated for 48 h.
The storage solution of each drug was prepared into 60 μg/ml with complete medium for use; the complete medium of each test drug mentioned above (50 μl) was placed in the 96-well plate inoculated cells, […], three wells for each concentration.
Then, 10 μl WST-1 solution was added into the wells of above drug groups, negative control group, and blank control group. […]
In order to objectively evaluate the synergistic effect of the combination of the three compounds, according to the standard proposed in the non patent literature Chou T C. Theoretical basis, experimental design, and computerized simulation of synergism and antagonism in drug combination studies. [J].
A, B and C denote the doses of three components in the pharmaceutical composition; Ae, Be, and Ce denote the dose of a single component required to achieve the tumor inhibition efficiency of the pharmaceutical composition when using a single compound alone. […] The smaller the CI value is, the stronger the synergistic effect is.
(Formazan colour is commonly taken as a measure of viable cells.)

Data set [2] has as its system mouse renal cancer cell lines RuCa. Nature of the data set: WST-1 growth inhibition of mouse renal cancer cell line RuCa in vitro. Type of data set: cell-based. The note with it: for Observation of cell morphology / effect on cell growth / inhibition at 30 µg/mL / OD value (average): 48 h; for Observation of cell morphology / effect on cell growth: inverted microscope, compared with negative control; for Inhibition rate (%): Comparative Example 1, method of Experimental Example 1; for inhibition at 30 µg/mL: Mus musculus, read-out: Inhibition rate (%); for inhibition at 30 µg/mL / OD value (average): final concentration 30 μg/ml; for OD value (average): WST-1, absorption at 440 nm. Here is the method:
as §1, §2, §3
The storage solution of each drug was prepared into 60 μg/ml with complete medium for use; the complete medium of each test drug mentioned above (50 μl) was placed in the 96-well plate inoculated cells, and the final concentration of each group was 30 μg/ml, three wells for each concentration.
Then, 10 μl WST-1 solution was added into the wells of above drug groups, negative control group, and blank control group. After the cells were incubated in 37° C. incubator for 4 h, the absorption values of different drug groups, negative control group and blank control group were measured at 440 nm by μ-Quant microplate analyzer.

The subject of data set [3] is transplanted tumor RuCa in mice. Nature of the data set: Inhibitory effect on transplanted tumor RuCa in mice. Type of data set: in vivo, mouse. The following applies: for Tumor inhibition rate (%) / Body weight 15 d after administration / Tumor weight: 30 mg/kg ip once a day, 15 times; for Body weight 15 d after administration / Tumor weight / Body weight Before administration: x ± SD, n = 10; for Body weight Before administration: baseline. The source says:
Mouse renal cancer cell lines RuCa were established by subcutaneously inoculating in mouse axillary. The number of cells inoculated was 1×10^7, and after inoculation formed transplanted tumor, the cells were passaged in mice for 3 generations for use.
• 80 BABL/C-nu mice, half male and half female, weighing 18-22 g; 2 Experimental Method 2.1 Route of Administration
intraperitoneal injection (ip)
The tumor tissue in vigorous growth stage was cut into about 1.5 mm^3 and homogenized under aseptic conditions to prepare 1×10^7/ml cell suspension. 80 mice of the above specifications were inoculated subcutaneously in the right armpit with 0.1 ml cell suspension. On the second day after inoculation, the mice were weighed and randomly divided into 8 groups, with 10 mice in each group, that were test drug 1 group, test drug 2 group, test drug 3 group, test drug 4 group, test drug 5 group, test drug 6 group, test drug 7 group, and negative control group. The test drug group was administrated by intraperitoneal injection (ip), 30 mg/kg/time, once a day, and the administration was successively performed 15 times. The negative group was intraperitoneally injected with the same dose of normal saline, once a day, and the mice were weighed before administration.
At the end of administration, the experiment was stopped, and the mice were killed by cervical dislocation and weighed. The tumor was stripped, and the tumor inhibition rate was calculated.

The mark [4] stands for this setting: Homo sapiens, A498, read-out: Inhibition rate (%).
[5] abbreviates: Homo sapiens, A498, final concentration 30 μg/ml (Table 3), read-out: Inhibition rate (%).
The mark [6] stands for this setting: Homo sapiens, A498, final concentration 30 μg/ml, 48 h, read-out: Inhibition rate (%).
The mark [7] stands for this setting: final concentration 30 μg/ml, 48 h.

In general, inhibition refers to the change of the read-out against control, counted positive when it falls. Take `O=C(/C=C/c1ccc(O)c(O)c1)O[C@@H]1C[C@](O)(C(=O)O)C[C@@H](O)[C@H]1O` [Chlorogenic acid, chlorogenic acid]: in data set [1] (48 h), the “Observation of cell morphology / effect on cell growth” value was “certain effect on cell growth”. For the same molecule, in data set [1] (setting [4]), the inhibition at 15 µg/mL came to 15.7% and the inhibition at 60 µg/mL came out at 61.3%. For the same molecule, the inhibition at 30 µg/mL in data set [1] (setting [5]) worked out at 37.2%. Moreover, in data set [1] (setting [6]), the inhibition at 30 µg/mL is 36.5%. In addition, the “OD value (average)” value in data set [1] (setting [7]) is reported as 1.494. In data set [2], the “Observation of cell morphology / effect on cell growth” value is given as “certain effect on cell growth”, the “Inhibition rate (%)” value was found to be 37.29%, the inhibition at 30 µg/mL is 38.5% and the “OD value (average)” value turned out to be 1.248. Further, in data set [3], the “Tumor inhibition rate (%)” value was found to be 33.33%, the “Body weight 15 d after administration” value is recorded as 27.3 ± 1.19, the “Tumor weight” value worked out at 1.8 ± 0.14 g and the “Body weight Before administration” value was 19.6 ± 0.98.
For `O=C(/C=C/c1ccc(O)cc1)O[C@@H]1C[C@](O)(C(=O)O)C[C@@H](O)[C@H]1O` [Coumaroylquinic acid, coumaroylquinic acid], the “Observation of cell morphology / effect on cell growth” value in data set [1] (48 h) was “almost had no effect on cell growth”. In data set [1] (setting [4]), the inhibition at 15 µg/mL was 1.92% and the inhibition at 60 µg/mL was determined as 7.13%. For the same molecule, the inhibition at 30 µg/mL in data set [1] (setting [5]) was found to be 4.85%. Further, in data set [1] (setting [6]), the inhibition at 30 µg/mL came to 3.13%. The “OD value (average)” value in data set [1] (setting [7]) was determined as 2.280. In addition, in data set [2], the “Observation of cell morphology / effect on cell growth” value is on record as “almost had no effect on cell growth”, the inhibition at 30 µg/mL was determined as 5.85% and the “OD value (average)” value amounted to 1.909. Further, in data set [3], the “Tumor inhibition rate (%)” value is on record as 7.41%, the “Body weight 15 d after administration” value stood at 25.2 ± 1.42, the “Tumor weight” value is reported as 2.5 ± 0.19 g and the “Body weight Before administration” value was found to be 19.4 ± 1.17.
As to `CNC(=O)c1cc(Oc2ccc(NC(=O)Nc3ccc(Cl)c(C(F)(F)F)c3)cc2)ccn1` [Sorafenib, sorafenib, reference compound], the inhibition at 0.1 µg/mL in data set [1] (Homo sapiens, A498, final concentration 0.1 μg/ml, read-out: Inhibition rate (%)) is 5.36%. In data set [1] (Homo sapiens, A498, final concentration 0.5 μg/ml, read-out: Inhibition rate (%)), the inhibition at 0.5 µg/mL was determined as 13.8%. For the same molecule, in data set [1] (Homo sapiens, A498, final concentration 1 μg/ml, read-out: Inhibition rate (%)), the inhibition at 1 µg/mL amounted to 29.4%.
As to “Cinnamoylquinic acid [reference compound]”, the “Inhibition rate (%)” value in data set [2] is listed as 13.94%.
On the same count and under the same terms, to “Feruloylquinic acid [reference compound]” belongs 10.42%.
